For test [1], the target named is Human norepinephrine transporter (NET) (Homo sapiens, UniProt P23975). Put plainly: Binding assay to human norepinephrine transporter (NET). The conditions noted are these: expressed as Ki; [3H]-Nisoxetin, human NET enriched membranes. The procedure:
Binding Assay to Human Norepinephrine Transporter (NET).
Human norepinephrine transporter (NET) enriched membranes (5 μg) were incubated with 5 nM of radiolabeled [3H]-Nisoxetin in assay buffer containing 50 mM Tris-HCl, 120 mM NaCl, 5 mM KCl, pH 7.4.
(§1) NSB (non specific binding) was measured by adding 10 μM of desipramine. The binding of the test compound was measured at five different concentrations. After 60 min incubation at 4° C., binding reaction was terminated by filtering through Multiscreen GF/C (Millipore) presoaked in 0.5% polyethyleneimine in Vacuum Manifold Station, followed by 3 washes with ice-cold filtration buffer containing 50 mM Tris-HCl, 0.9% NaCl, pH 7.4.
Filter plates were dried at 60° C. for 1 hour and 30 μL of scintillation cocktail were added to each well before radioactivity reading.
Readings were performed in a Trilux 1450 Microbeta radioactive counter (Perkin Elmer).

Test [2] deals with Human α2δ−1 subunit of Cav2.2 calcium channel (Homo sapiens, UniProt P54289). Description: Human α2δ−1 subunit of Cav2.2 calcium channel assay. The conditions noted are these: expressed as Ki; [3H]-Gabapentin, human α2δ−1 enriched membranes; read-out: Binding α2δ-1. The procedure:
as §1, with “Human α2δ−1 Subunit of Cav2.2 Calcium Channel Assay Human α2δ−1 enriched membranes (2.5 μg) were incubated with 15 nM of radiolabeled [3H]-Gabapentin in assay buffer containing Hepes-KOH 10 mM, pH 7.4. NSB” for “NSB”, “pregabalin.” for “of desipramine.”, “27°” for “4°”, “Tris-HCl,” for “Tris-HCl, 0.9% NaCl,”
Filter plates were dried at 60° C. for 1 hour and 30 μL of scintillation cocktail were added to each well before radioactivity reading. Readings were performed in a Trilux 1450 Microbeta radioactive counter (Perkin Elmer).

Chain of Human norepinephrine transporter (NET) (P23975 whole entry): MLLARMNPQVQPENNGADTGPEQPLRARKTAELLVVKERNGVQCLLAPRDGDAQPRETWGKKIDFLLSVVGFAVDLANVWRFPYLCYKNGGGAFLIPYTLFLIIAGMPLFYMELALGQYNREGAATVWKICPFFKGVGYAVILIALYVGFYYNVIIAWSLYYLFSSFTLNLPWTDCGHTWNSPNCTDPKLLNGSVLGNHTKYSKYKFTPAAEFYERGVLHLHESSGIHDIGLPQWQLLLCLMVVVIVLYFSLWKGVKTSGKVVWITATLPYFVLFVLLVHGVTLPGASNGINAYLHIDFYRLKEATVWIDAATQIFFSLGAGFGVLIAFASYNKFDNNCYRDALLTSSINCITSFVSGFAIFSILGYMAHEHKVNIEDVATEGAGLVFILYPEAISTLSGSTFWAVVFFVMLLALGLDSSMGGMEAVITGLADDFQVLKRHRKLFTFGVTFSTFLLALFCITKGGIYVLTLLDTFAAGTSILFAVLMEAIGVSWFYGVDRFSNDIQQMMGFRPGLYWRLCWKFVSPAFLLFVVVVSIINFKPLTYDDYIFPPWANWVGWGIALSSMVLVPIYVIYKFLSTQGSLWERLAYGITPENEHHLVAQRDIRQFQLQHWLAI
Chain of Human α2δ−1 subunit of Cav2.2 calcium channel (P54289 25-1103): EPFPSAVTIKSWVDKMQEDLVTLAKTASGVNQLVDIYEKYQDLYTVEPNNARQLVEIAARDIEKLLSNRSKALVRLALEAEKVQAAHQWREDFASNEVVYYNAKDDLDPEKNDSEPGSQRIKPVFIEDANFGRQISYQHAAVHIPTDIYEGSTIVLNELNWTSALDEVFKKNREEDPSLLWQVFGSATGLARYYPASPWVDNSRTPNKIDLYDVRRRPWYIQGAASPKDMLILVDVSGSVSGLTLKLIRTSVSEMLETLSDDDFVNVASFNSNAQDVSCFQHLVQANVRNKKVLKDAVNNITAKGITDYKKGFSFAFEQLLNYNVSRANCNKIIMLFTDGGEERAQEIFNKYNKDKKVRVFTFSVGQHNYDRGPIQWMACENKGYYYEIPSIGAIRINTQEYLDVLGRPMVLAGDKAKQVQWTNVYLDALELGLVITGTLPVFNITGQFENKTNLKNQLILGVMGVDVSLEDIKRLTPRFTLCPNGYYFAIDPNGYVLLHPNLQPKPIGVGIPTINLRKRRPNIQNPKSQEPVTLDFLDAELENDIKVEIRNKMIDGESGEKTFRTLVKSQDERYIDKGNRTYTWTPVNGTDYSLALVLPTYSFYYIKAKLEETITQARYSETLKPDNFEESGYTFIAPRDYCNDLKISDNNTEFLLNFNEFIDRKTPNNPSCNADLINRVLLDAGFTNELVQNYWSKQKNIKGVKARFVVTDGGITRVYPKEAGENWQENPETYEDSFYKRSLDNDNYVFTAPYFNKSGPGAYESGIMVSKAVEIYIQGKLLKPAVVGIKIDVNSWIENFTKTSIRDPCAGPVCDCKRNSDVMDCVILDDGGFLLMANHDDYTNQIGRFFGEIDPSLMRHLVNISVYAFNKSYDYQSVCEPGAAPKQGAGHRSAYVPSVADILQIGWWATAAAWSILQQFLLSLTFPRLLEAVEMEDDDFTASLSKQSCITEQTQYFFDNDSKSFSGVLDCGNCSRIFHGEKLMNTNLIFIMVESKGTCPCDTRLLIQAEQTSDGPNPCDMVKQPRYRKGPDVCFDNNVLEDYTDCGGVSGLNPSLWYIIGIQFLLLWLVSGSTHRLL

As to `CCOc1ccc(-n2nc3c(N4CC[C@H](NCc5cccc(OC)c5)C4)nnc(C)c3c2C)c(F)c1` [Example 6, (S)-1-(2-(4-ethoxy-2-fluorophenyl)-3,4-dimethyl-2H-pyrazolo[3,4-d]pyridazin-7-yl)-N-(3-methoxybenzyl)pyrrolidin-3-amine], the Ki is 500 to 1000 nM in test [1] and below 500 nM in test [2].

Take `CCOc1ccc(-n2nc3c(N4CC[C@H](NCCc5ccccc5)C4)nnc(C)c3c2C)c(F)c1` [Example 2, (S)-1-(2-(4-ethoxy-2-fluorophenyl)-3,4-dimethyl-2H-pyrazolo[3,4-d]pyridazin-7-yl)-N-phenethylpyrrolidin-3-amine]: the Ki in test [1] was 500 to 1000 nM; in test [2], below 500 nM.

In the case of `CCOc1ccc(-n2nc3c(N4CC[C@@H](NCc5cccc(O)c5)C4)nnc(C)c3c2C)c(F)c1` [Example 8, (R)-3-(((1-(2-(4-ethoxy-2-fluorophenyl)-3,4-dimethyl-2H-pyrazolo[3,4-d]pyridazin-7-yl)pyrrolidin-3-yl)amino)methyl)phenol], the Ki in test [1] was 100 to 500 nM; in test [2], below 500 nM.

Turning to `CCOc1ccc(-n2nc3c(N4CC[C@H](N(C)Cc5cccc(O)c5)C4)nnc(C)c3c2C)c(F)c1` [Example 15, (S)-3-(((1-(2-(4-Ethoxy-2-fluorophenyl)-3,4-dimethyl-2H-pyrazolo[3,4-d]pyridazin-7-yl)pyrrolidin-3-yl)(methyl)amino)methyl)phenol], the Ki in test [1] is at least 1000 nM; in test [2], below 500 nM.

For the compound `CCOc1ccc(-n2nc3c(N4CC[C@H](NCc5ccccc5)C4)nnc(C)c3c2C)c(F)c1` [Example 1, (S)-N-Benzyl-1-(2-(4-ethoxy-2-fluorophenyl)-3,4-dimethyl-2H-pyrazolo[3,4-d]pyridazin-7-yl)pyrrolidin-3-amine], the figures for the Ki in test [1] and in test [2] were 100 to 500 nM and below 500 nM, respectively.

With `CCOc1ccc(-n2nc3c(N4CC[C@H](NCc5cccc(O)c5)C4)nnc(C)c3c2C)c(F)c1` [Example 3, (S)-3-(((1-(2-(4-ethoxy-2-fluorophenyl)-3,4-dimethyl-2H-pyrazolo[3,4-d]pyridazin-7-yl)pyrrolidin-3-yl)amino)methyl)phenol], the Ki was 100 to 500 nM in test [1] and below 500 nM in test [2].

Regarding `CCOc1ccc(-n2nc3c(N4CC[C@@H](NCc5ccccc5)C4)nnc(C)c3c2C)c(F)c1` [Example 10, (R)-N-benzyl-1-(2-(4-ethoxy-2-fluorophenyl)-3,4-dimethyl-2H-pyrazolo[3,4-d]pyridazin-7-yl)pyrrolidin-3-amine], the values for the Ki in test [1] and in test [2] were 100 to 500 nM and below 500 nM, respectively.

Take `CCOc1ccc(-n2nc3c(N4CCC[C@H](N(C)C)C4)nnc(C)c3c2C)c(F)c1` [Example 17, (S)-1-(2-(4-ethoxy-2-fluorophenyl)-3,4-dimethyl-2H-pyrazolo[3,4-d]pyridazin-7-yl)-N,N-dimethylpiperidin-3-amine]: the Ki in test [1] was at least 1000 nM; in test [2], 500 to 5000 nM.

With `CCOc1ccc(-n2nc3c(N4CC[C@H](NCc5ccncc5)C4)nnc(C)c3c2C)c(F)c1` [Example 12, (S)-1-(2-(4-ethoxy-2-fluorophenyl)-3,4-dimethyl-2H-pyrazolo[3,4-d]pyridazin-7-yl)-N-(pyridin-4-ylmethyl)pyrrolidin-3-amine], the Ki in test [1] was at least 1000 nM; in test [2], below 500 nM.

On to `CCOc1ccc(-n2nc3c(N4CC[C@H](NC(=O)Cc5ccccn5)C4)nnc(C)c3c2C)c(F)c1` [Example 18, (S)-N-(1-(2-(4-Ethoxy-2-fluorophenyl)-3,4-dimethyl-2H-pyrazolo[3,4-d]pyridazin-7-yl)pyrrolidin-3-yl)-2-(pyridin-2-yl)acetamide], for which the Ki is at least 1000 nM in test [1] and below 500 nM in test [2].

With `CCOc1ccc(-n2nc3c(N4CC[C@H](NCc5ccccc5O)C4)nnc(C)c3c2C)c(F)c1` [Example 9, (S)-2-(((1-(2-(4-ethoxy-2-fluorophenyl)-3,4-dimethyl-2H-pyrazolo[3,4-d]pyridazin-7-yl)pyrrolidin-3-yl)amino)methyl)phenol], the Ki in test [1] was 100 to 500 nM; in test [2] it was below 500 nM.

With `CCOc1ccc(-n2nc3c(N4CC[C@H](NCc5cncc(F)c5)C4)nnc(C)c3c2C)c(F)c1` [Example 14, (S)-1-(2-(4-ethoxy-2-fluorophenyl)-3,4-dimethyl-2H-pyrazolo[3,4-d]pyridazin-7-yl)-N-((5-fluoropyridin-3-yl)methyl)pyrrolidin-3-amine], the Ki in test [1] is at least 1000 nM; in test [2], at least 5000 nM.

For `CCOc1ccc(-n2nc3c(N4CC[C@H](NCc5ncccc5F)C4)nnc(C)c3c2C)c(F)c1` [Example 13, (S)-1-(2-(4-ethoxy-2-fluorophenyl)-3,4-dimethyl-2H-pyrazolo[3,4-d]pyridazin-7-yl)-N-((3-fluoropyridin-2-yl)methyl)pyrrolidin-3-amine], the Ki in test [1] is 500 to 1000 nM; in test [2], below 500 nM.

As to `CCOc1ccc(-n2nc3c(N4CC[C@H](NCc5ccccn5)C4)nnc(C)c3c2C)c(F)c1` [Example 4, (S)-1-(2-(4-ethoxy-2-fluorophenyl)-3,4-dimethyl-2H-pyrazolo[3,4-d]pyridazin-7-yl)-N-(pyridin-2-ylmethyl)pyrrolidin-3-amine], the Ki in test [1] was at least 1000 nM; in test [2] it was below 500 nM.

Turning to `CCOc1ccc(-n2nc3c(N4CC[C@H](NCc5cccnc5)C4)nnc(C)c3c2C)c(F)c1` [Example 11, (S)-1-(2-(4-ethoxy-2-fluorophenyl)-3,4-dimethyl-2H-pyrazolo[3,4-d]pyridazin-7-yl)-N-(pyridin-3-ylmethyl)pyrrolidin-3-amine], the Ki was 500 to 1000 nM in test [1] and below 500 nM in test [2].

Regarding `CCOc1ccc(-n2nc3c(N4CC[C@H](NC(=O)Cc5cccnc5)C4)nnc(C)c3c2C)c(F)c1` [Example 19, (S)-N-(1-(2-(4-ethoxy-2-fluorophenyl)-3,4-dimethyl-2H-pyrazolo[3,4-d]pyridazin-7-yl)pyrrolidin-3-yl)-2-(pyridin-3-yl)acetamide], the values for the Ki in test [1] and in test [2] were at least 1000 nM and below 500 nM, respectively.

As to `CCOc1ccc(-n2nc3c(N4CC[C@H](NCc5ccc(F)c(F)c5)C4)nnc(C)c3c2C)c(F)c1` [Example 7, (S)-N-(3,4-difluorobenzyl)-1-(2-(4-ethoxy-2-fluorophenyl)-3,4-dimethyl-2H-pyrazolo[3,4-d]pyridazin-7-yl)pyrrolidin-3-amine], the Ki in test [1] is below 100 nM; in test [2] it was below 500 nM.

Regarding `CCOc1ccc(-n2nc3c(N4CC[C@H](N(C)Cc5ccccc5)C4)nnc(C)c3c2C)c(F)c1` [Example 16, (S)-N-benzyl-1-(2-(4-ethoxy-2-fluorophenyl)-3,4-dimethyl-2H-pyrazolo[3,4-d]pyridazin-7-yl)-N-methylpyrrolidin-3-amine], the Ki in test [1] is 500 to 1000 nM; in test [2] it was below 500 nM.

For the compound `CCOc1ccc(-n2nc3c(N4CC[C@H](NCCc5ccc(F)cc5)C4)nnc(C)c3c2C)c(F)c1` [Example 5, (S)-1-(2-(4-ethoxy-2-fluorophenyl)-3,4-dimethyl-2H-pyrazolo[3,4-d]pyridazin-7-yl)-N-(4-fluorophenethyl)pyrrolidin-3-amine], the Ki in test [1] was at least 1000 nM; in test [2], below 500 nM.
